# According to ChEMBL document CHEMBL1128892, “Pharmacological evaluation of UK-14,304 analogs at cloned human adrenergic receptors” (Bioorg Med Chem Lett, 1995):
# The source made the active and inactive calls. The rule behind the calls is not given here.
# Columns and labels:
# [1] = biological target: T1, Alpha-2A adrenergic receptor (Homo sapiens) (UniProt P08913); assay: Inhibitory activity against Alpha-2A adrenergic receptor relative to norepinephrine at 100 uM; Not active
# T1 sequence (whole entry): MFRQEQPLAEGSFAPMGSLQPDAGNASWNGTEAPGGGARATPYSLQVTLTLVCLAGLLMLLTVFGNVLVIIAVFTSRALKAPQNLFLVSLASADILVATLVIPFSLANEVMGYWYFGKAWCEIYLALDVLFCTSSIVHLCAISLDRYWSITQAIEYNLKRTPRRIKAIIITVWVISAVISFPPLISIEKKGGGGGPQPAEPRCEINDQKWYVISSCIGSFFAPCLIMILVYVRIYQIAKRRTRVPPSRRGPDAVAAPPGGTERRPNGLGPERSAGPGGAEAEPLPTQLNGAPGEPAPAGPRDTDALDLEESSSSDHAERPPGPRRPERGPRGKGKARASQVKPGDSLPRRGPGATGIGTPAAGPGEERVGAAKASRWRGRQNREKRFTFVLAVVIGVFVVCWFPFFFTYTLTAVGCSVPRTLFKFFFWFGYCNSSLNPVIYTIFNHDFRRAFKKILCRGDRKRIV
# [2] = biological target: T2, Alpha-2B adrenergic receptor (Homo sapiens) (UniProt P18089); assay: Inhibitory activity against Alpha-2B adrenergic receptor relative to norepinephrine at 100 uM; Not active
# T2 sequence (whole entry): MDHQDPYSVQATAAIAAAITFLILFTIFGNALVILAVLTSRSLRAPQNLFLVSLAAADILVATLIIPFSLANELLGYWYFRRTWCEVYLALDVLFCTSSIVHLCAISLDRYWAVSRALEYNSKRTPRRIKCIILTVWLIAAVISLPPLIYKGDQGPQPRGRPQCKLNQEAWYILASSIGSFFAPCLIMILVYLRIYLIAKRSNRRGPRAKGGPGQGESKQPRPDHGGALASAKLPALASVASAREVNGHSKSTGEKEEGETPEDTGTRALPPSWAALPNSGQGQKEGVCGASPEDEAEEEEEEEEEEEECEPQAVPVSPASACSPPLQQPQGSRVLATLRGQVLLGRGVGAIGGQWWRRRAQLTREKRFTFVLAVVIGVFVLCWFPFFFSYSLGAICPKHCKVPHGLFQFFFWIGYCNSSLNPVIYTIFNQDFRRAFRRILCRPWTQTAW
# [3] = biological target: T1, Alpha-2A adrenergic receptor (Homo sapiens); assay: Alpha-2A adrenergic receptor agonistic potency as inhibition of forskolin-stimulated cyclic adenosine monophosphate synthesis at 100 uM; Not active; format: functional
# [4] = biological target: T3, Alpha-2C adrenergic receptor (Homo sapiens, UniProt P18825); assay: Binding affinity for human Alpha-2C adrenergic receptor from cultured LM(tk-) cells using [3H]- prazosin
# T3 sequence (P18825 whole entry): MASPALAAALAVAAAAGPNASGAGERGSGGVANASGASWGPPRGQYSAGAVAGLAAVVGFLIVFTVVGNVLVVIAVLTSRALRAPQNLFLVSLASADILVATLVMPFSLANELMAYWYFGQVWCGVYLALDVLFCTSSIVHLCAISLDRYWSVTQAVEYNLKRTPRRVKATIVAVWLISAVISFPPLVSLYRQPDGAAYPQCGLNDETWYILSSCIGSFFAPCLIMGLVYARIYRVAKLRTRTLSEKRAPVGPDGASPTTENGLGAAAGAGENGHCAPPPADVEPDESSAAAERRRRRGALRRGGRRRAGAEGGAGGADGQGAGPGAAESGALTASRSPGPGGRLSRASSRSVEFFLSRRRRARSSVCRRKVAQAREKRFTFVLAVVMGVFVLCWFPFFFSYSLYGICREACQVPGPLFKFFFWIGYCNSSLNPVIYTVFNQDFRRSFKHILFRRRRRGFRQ
# [5] = biological target: T4, Alpha-2C adrenergic receptor (Homo sapiens) (UniProt P18825); assay: Inhibitory activity against Alpha-2C adrenergic receptor relative to norepinephrine at 100 uM; Not active
# T4 sequence (whole entry): T3 sequence (P18825 whole entry)
# [6] = biological target: T4, Alpha-2C adrenergic receptor (Homo sapiens); settings: 100 uM
# [7] = biological target: T5, Alpha-2A adrenergic receptor (Homo sapiens, UniProt P08913); assay: Binding affinity for human Alpha-2A adrenergic receptor from cultured LM(tk-) cells using [3H]rauwolscine
# T5 sequence (P08913 whole entry): T1 sequence (whole entry)
# [8] = biological target: T6, Alpha-1D adrenergic receptor (Homo sapiens, UniProt P25100); assay: Binding affinity for human Alpha-1D adrenergic receptor from cultured LM(tk-) cells using [3H]- prazosin
# T6 sequence (P25100 whole entry): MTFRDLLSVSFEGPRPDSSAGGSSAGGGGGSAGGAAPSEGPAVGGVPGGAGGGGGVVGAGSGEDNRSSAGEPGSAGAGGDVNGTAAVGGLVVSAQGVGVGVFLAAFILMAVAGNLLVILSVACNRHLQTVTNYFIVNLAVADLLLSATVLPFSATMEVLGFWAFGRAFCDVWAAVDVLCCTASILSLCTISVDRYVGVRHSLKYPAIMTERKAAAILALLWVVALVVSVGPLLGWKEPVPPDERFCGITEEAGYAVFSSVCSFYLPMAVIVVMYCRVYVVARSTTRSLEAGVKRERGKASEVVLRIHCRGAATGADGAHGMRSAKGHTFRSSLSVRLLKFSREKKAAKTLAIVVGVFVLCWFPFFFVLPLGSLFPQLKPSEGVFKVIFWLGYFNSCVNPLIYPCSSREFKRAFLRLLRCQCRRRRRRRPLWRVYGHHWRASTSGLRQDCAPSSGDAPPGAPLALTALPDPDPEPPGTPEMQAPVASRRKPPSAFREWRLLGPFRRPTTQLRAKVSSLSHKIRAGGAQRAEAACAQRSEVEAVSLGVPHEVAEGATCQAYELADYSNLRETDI
# [9] = biological target: T7, Alpha-1A adrenergic receptor (Homo sapiens, UniProt P35348); assay: Binding affinity for human Alpha-1A adrenergic receptor from cultured LM(tk-) cells using [3H]-prazosin
# T7 sequence (P35348 whole entry): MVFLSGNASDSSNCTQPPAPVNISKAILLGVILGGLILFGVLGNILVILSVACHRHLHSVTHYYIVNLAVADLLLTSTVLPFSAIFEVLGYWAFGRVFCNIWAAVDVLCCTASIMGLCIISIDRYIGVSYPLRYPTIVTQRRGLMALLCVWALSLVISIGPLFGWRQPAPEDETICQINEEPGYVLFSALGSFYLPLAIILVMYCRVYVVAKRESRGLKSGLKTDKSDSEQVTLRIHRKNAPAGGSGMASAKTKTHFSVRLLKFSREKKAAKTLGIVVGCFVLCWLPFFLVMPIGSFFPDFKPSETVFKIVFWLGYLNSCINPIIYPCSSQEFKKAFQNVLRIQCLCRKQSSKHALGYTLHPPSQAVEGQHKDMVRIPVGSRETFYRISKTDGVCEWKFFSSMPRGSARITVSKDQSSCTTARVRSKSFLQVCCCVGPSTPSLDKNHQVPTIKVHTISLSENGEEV
# [10] = biological target: T2, Alpha-2B adrenergic receptor (Homo sapiens); assay: The Alpha-2B adrenergic receptor agonistic potency for its ability to inhibit forskolin-stimulated synthesis of cyclic adenosine monophosphate at 100 uM concentration; Not active; format: functional
# [11] = biological target: T8, Alpha-2B adrenergic receptor (Homo sapiens, UniProt P18089); assay: Binding affinity for human Alpha-2B adrenergic receptor from cultured Y-1 cells using [3H]rauwolscine; format: cell-based
# T8 sequence (P18089 whole entry): T2 sequence (whole entry)
# [12] = biological target: T9, Alpha-1B adrenergic receptor (Homo sapiens, UniProt P35368); assay: Binding affinity for human Alpha-1B adrenergic receptor from cultured LM(tk-) cells using [3H]prazosin
# T9 sequence (P35368 whole entry): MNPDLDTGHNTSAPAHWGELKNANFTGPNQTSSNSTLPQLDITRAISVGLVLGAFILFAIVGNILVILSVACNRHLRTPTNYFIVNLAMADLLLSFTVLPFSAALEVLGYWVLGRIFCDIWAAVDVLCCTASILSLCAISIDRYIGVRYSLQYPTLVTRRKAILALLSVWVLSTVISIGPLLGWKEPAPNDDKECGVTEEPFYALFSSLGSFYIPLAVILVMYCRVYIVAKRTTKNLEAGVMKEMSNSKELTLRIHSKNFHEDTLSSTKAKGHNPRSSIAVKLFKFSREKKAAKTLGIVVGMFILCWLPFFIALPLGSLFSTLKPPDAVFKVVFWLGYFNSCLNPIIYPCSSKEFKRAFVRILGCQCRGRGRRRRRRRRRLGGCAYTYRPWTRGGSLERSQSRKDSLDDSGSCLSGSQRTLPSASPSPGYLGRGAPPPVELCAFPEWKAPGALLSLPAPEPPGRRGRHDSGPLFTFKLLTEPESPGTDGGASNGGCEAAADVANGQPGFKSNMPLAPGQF
# [13] = biological target: T3, Alpha-2C adrenergic receptor; assay: Alpha-2C adrenergic receptor agonistic potency as inhibition of forskolin-stimulated cyclic adenosine monophosphate synthesis; format: functional
# [14] = biological target: T5, Alpha-2A adrenergic receptor; assay: Alpha-2A adrenergic receptor agonistic potency as inhibition of forskolin-stimulated synthesis of cyclic adenosine monophosphate; format: functional
# [15] = biological target: T1, Alpha-2A adrenergic receptor (Homo sapiens); assay: Inhibitory activity against Alpha-2A adrenergic receptor relative to norepinephrine
# [16] = biological target: T4, Alpha-2C adrenergic receptor (Homo sapiens); assay: Inhibitory activity against Alpha-2C adrenergic receptor relative to norepinephrine
# [17] = biological target: T8, Alpha-2B adrenergic receptor; assay: Alpha-2B adrenergic receptor agonistic potency as inhibition of forskolin-stimulated cyclic adenosine monophosphate synthesis; format: functional
# [18] = biological target: T4, Alpha-2C adrenergic receptor (Homo sapiens); assay: Alpha-2C adrenergic receptor agonistic potency as inhibition of forskolin-stimulated cyclic adenosine monophosphate synthesis at 100 uM; Not active; format: functional
Structure (SMILES),Intrinsic activity [1],Intrinsic activity [2],Log EC50 [3],Ki [4] [µM],Intrinsic activity [5],Log EC50 [6],Ki [7] [µM],Ki [8] [µM],Ki [9] [µM],Log EC50 [10],Ki [11] [µM],Ki [12] [µM],EC50 [13] [µM],EC50 [14] [µM],Intrinsic activity [15],Intrinsic activity [16],EC50 [17] [µM],Log EC50 [18]
c1cnc2cc(NC3=NCCN3)ccc2n1,inactive,inactive,inactive,1.41,inactive,inactive,0.309,12.3,18.2,inactive,0.219,3.24,,,,,,
Clc1c(NC2=NCCN2)ccc2nccnc12,,,,0.195,,,0.0372,2.4,5.13,,0.0692,10.5,0.0309,0.00234,1,1,0.174,
CC1CN=C(Nc2ccc3nccnc3c2Br)N1 (stereo not drawn),,inactive,,0.646,,,3.8,5.01,> 100,inactive,3.24,> 100,0.832,15.8,0.8,0.8,,
Brc1c(NC2=NCCN2)ccc2nccnc12 [BRIMONIDINE],,,,,,,,0.933,,,,5.37,,,1,1,,
Brc1c(NC2=NCCN2)ccc2c1NCCN2,,,,0.214,,,0.00646,2.69,1.12,,0.049,4.37,0.105,0.00282,1,1,0.891,
Brc1c(NC2=NCCO2)ccc2nccnc12,inactive,inactive,inactive,49,inactive,,26.3,102,91.2,inactive,85.1,141,,,,,,inactive
Brc1c(NC2=NCCS2)ccc2nccnc12,,inactive,,28.2,inactive,,10.2,27.5,21.4,inactive,17.4,60.3,,2.75,0.9,,,inactive
Brc1c(NC2=N[C@@H]3CCCC[C@@H]3N2)ccc2nccnc12,inactive,inactive,inactive,11.5,inactive,,14.8,41.7,14.1,inactive,18.2,105,,,,,,inactive
Cc1cnc2c(Br)c(NC3=NCCN3)ccc2n1,,inactive,,0.646,,,0.0741,5.01,> 100,inactive,0.324,> 100,0.832,0.851,1,0.8,,
